Data published in patent US10981932B2, “Macrocyclic indole derivatives” (Bayer Aktiengesellschaft, priority 2016, dated 2021).
Several values for one entry are separate records, joined by “and”; a condition that tells them apart may be missing. Identical values can stand only once. Counter-ions that a name gives are not always drawn. Like-named read-outs stand apart in the source and are kept apart here.

Columns and labels:
[1] = test system: SUDHL5; experiment: Induction of caspase-3/7 activity (Caspase-Glo 3/7), SUDHL5; type: cell-based; details: caspase-3/7 induction, SUDHL5 cells, 3 h treatment, median
In short: (§1)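 DLBCL cells treated with compounds for 3 h at 37 °C, then caspase-3/7 activity read by Caspase-Glo 3/7 luminescence. Medium-only background subtracted; EC50 fitted with C0 fixed at 1 and top set to the reference compound's maximal induction.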

[2] = test system: SUDHL10; experiment: Induction of caspase-3/7 activity (Caspase-Glo 3/7), SUDHL10; type: cell-based; details: caspase-3/7 induction, SUDHL10 cells, 3 h treatment, median
In short: as §1

[3] = test system: MV-4-11; experiment: Anti-proliferative effect (CellTiter-Glo, 72 h), MV-4-11; type: cell-based; details: Homo sapiens, MV4-11, 72 h, MV-4-11 cells, median, read-out: IC50 antiproliferation assay MV-4-11 [M] (median)
In short: (§2)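 Cells were treated with compounds for 72 h at 37 °C in a humidified incubator, and viability was measured by CellTiter-Glo luminescence. A parallel day 0 plate, read the same way, gave the time zero baseline.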

[4] = test system: A2780; experiment: Anti-proliferative effect (CellTiter-Glo, 72 h), A2780; type: cell-based; details: A2780 cells, median, read-out: IC50 antiproliferation assay A2780 [M] (median)
In short: as §2

[5] = test system: SUDHL5; experiment: Anti-proliferative effect (CellTiter-Glo, 72 h), SUDHL5; type: cell-based; details: SUDHL5 cells, antiproliferation, median, read-out: Antiproli SUDHL5 [M] (median)
In short: as §2

[6] = target: MCL-1 (Homo sapiens, UniProt Q07820); experiment: Protein-protein interaction assay MCL-1/Noxa BH3 peptide (MCL-1 assay), TR-FRET; type: binding; details: MBP-MCL-1 / Noxa BH3-derived peptide, median
Sequence of MCL-1 (Q07820 whole entry): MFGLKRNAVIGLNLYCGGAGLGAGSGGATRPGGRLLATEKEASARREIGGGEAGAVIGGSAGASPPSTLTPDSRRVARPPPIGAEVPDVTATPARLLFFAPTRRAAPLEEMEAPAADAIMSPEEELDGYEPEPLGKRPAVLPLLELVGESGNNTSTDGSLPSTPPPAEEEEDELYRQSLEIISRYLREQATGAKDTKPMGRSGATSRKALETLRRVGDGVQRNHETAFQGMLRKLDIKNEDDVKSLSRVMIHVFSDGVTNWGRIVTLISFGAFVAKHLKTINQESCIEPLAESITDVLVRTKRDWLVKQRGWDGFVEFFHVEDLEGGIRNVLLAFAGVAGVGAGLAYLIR
In short: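 TR-FRET, 665/622 nm emission ratio (excitation 330–350 nm), measured MCL-1/Noxa complex formation. 1 nM MBP-MCL-1, 50 mM Tris/HCl pH 7, 0.1% BGG, 2 mM DTT. Incubation 1 h at 22 °C, then overnight at 4 °C. IC50 by 4-parameter regression, normalized to DMSO (0%) and no-MCL-1 (100%) controls.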

[7] = test system: SUDHL5; experiment: Induction of cytotoxicity (CellTiter-Glo, 5 h), SUDHL5
[8] = test system: SUDHL10; experiment: Induction of cytotoxicity (CellTiter-Glo, 5 h), SUDHL10
[9] = test system: SUDHL10; experiment: Anti-proliferative effect (CellTiter-Glo, 72 h), SUDHL10; type: cell-based; details: SUDHL10 cells, antiproliferation, median, read-out: Antiproli SUDHL10 [M] (median)
In short: as §2

[10] = read-out: Cytotox SUDHL5 [M] (median), SUDHL5 cells, cytotoxicity induction, CellTiter-Glo, 5 h incubation, median
[11] = read-out: Cytotox SUDHL10 [M] (median), SUDHL10 cells, cytotoxicity induction, CellTiter-Glo, 5 h incubation, median
[12] = Homo sapiens, SU-DHL-5, 72 h, 72 h incubation
[13] = Homo sapiens, SU-DHL10, 5 h, read-out: Cytotox SUDHL10 [M] (median), SUDHL10 cells, cytotoxicity induction, CellTiter-Glo, 5 h incubation, median
[14] = Homo sapiens, SU-DHL10, 72 h, 72 h incubation

CCCc1nn(C)c2c1-c1c(C)ccc3c(CCCOc4cccc5ccccc45)c(C(=O)O)n(c13)CCCN(C)C2 (single isomer, unassigned; enantiomer 1) [Example 196, 7,9,12-trimethyl-1-[3-(naphthalen-1-yloxy)propyl]-11-propyl-4,5,6,7,8,9-hexahydropyrazolo[3′,4′:7,8][1,5]diazecino[9,10,1-hi]indole-2-carboxylic acid-N-ethylethanamine Salt (Enantiomer 1)]
EC50 [1]: 1.39 µM | EC50 [2]: 2.85 µM | IC50 [3]: 4.83e-06 M | IC50 ([4]; Homo sapiens, A2780, 72 h): 1.53e-05 M | IC50 ([5]; 72 h incubation): 1.45e-06 M | IC50 [6]: 0.00161 µM | IC50 [7, 10]: 1.36e-06 M | IC50 [8, 11]: 2.92e-06 M | IC50 ([9]; 72 h incubation): 2.19e-06 M

O=C(O)c1c(CCCOc2cccc3ccccc23)c2cccc3c2n1CCCCOCc1nn2c(c1-3)COCC2 (single isomer, unassigned) [Example 252, 1-[3-(naphthalen-1-yloxy)propyl]-4,5,6,7,12,13-hexahydro-9H,15H-[1,4]oxazino[4″,3″:1′,5′]pyrazolo[4′,3′:9,10][1,6]oxazacycloundecino[8,7,6-hi]indole-2-carboxylic acid-N-ethylethanamine Salt]
EC50 [1]: 4.79 µM | EC50 [2]: 17.2 µM | IC50 [3]: 1.04e-05 M | IC50 [4]: 3.16e-05 M and > 3.3e-05 M | IC50 ([5]; 72 h incubation): 8.78e-06 M | IC50 [6]: 0.0037 µM | IC50 [7, 10]: 5.17e-06 M | IC50 [8, 11]: 2.09e-05 M | IC50 ([9]; 72 h incubation): 6.31e-06 M

CCc1c2c(nn1C)CN(C)CCCn1c(C(=O)O)c(CCCOc3cccc4ccccc34)c3cccc-2c31 (single isomer, unassigned; enantiomer 2) [Example 143, 11-ethyl-7,10-dimethyl-1-[3-(1-naphthyloxy)propyl]-4,5,6,7,8,10-hexahydropyrazolo[3′,4′:7,8][1,5]diazecino[9,10,1-hi]indole-2-carboxylic acid-N-ethylethanamine Salt (Enantiomer 2)]
EC50 [1]: 25 µM | EC50 [2]: > 33 µM | IC50 [3]: 1.2e-05 M | IC50 [4]: 1.21e-05 M | IC50 ([5]; 72 h incubation): 1.44e-05 M | IC50 [6]: 0.0308 µM | IC50 [7, 10]: 1.36e-05 M | IC50 [8, 11]: 2.69e-05 M | IC50 ([9]; 72 h incubation): 2.02e-05 M

Cc1ccc2c(C(C)CCOc3cccc4cc(F)ccc34)c(C(=O)O)n3c2c1-c1c(nn(C)c1C)COCCCC3 (racemic) [Example 276, 7-{4-[(6-fluoronaphthalen-1-yl)oxy]butan-2-yl}-2,3,4-trimethyl-2,10,11,12,13,15-hexahydropyrazolo[4′3′:9,10][1,6]oxazacycloundecino[8,7,6-hi]indole-8-carboxylic Acid]
EC50 ([1]; Homo sapiens, SU-DHL-5, 3 h): 4.07 µM | EC50 ([2]; Homo sapiens, SU-DHL10, 3 h): 10.3 µM | IC50 [3]: 1.2e-05 M | IC50 ([4]; Homo sapiens, A2780, 72 h): 1.22e-05 M | IC50 [5, 12]: 5.85e-06 M | IC50 [6]: 0.00756 µM | IC50 ([7]; Homo sapiens, SU-DHL-5, 5 h, read-out: Cytotox SUDHL5 [M] (median), SUDHL5 cells, cytotoxicity induction, CellTiter-Glo, 5 h incubation, median): 5.23e-06 M | IC50 [8, 13]: 1.03e-05 M | IC50 [9, 14]: 7.32e-06 M

Cc1nn(CCN2CCOCC2)c2c1-c1cccc3c(CCCOc4cccc5ccccc45)c(C(=O)O)n(c13)CCCCOC2 (single isomer, unassigned; enantiomer 1) [Example 096, 3-methyl-1-[2-(morpholin-4-yl)ethyl]-7-[3-(naphthalen-1-yloxy)propyl]-1,10,11,1213,15-hexahydropyrazolo[4′,3′:9,10][1,6]oxazacycloundecino[8,7,6-hi]indole-8-carboxylic acid-N-ethylethanamine Salt (Enantiomer 1)]
EC50 [1]: 1.34 µM | EC50 [2]: 3.97 µM | IC50 [3]: 1.45e-06 M | IC50 ([4]; Homo sapiens, A2780, 72 h): 2.79e-05 M | IC50 ([5]; 72 h incubation): 2.32e-06 M | IC50 [6]: 0.00136 µM | IC50 [7, 10]: 1.09e-06 M | IC50 [8, 11]: 3.7e-06 M | IC50 [9, 14]: 7.13e-06 M

Cn1nc(CN2CCCCC2)c2c1COCCCCn1c(C(=O)O)c(CCCOc3cccc4ccccc34)c3cccc-2c31 (single isomer, unassigned; enantiomer 2) [Example 334, 1-methyl-7-[3-(naphthalen-1-yloxy)propyl]-3-(piperidin-1-ylmethyl)-1,10,11,12,13,15-hexahydropyrazolo[4′3′:9,10][1,6]oxazacycloundecino[8,7,6-hi]indole-8-carboxylic Acid (Enantiomer 2)]
EC50 [1]: 16.9 µM | EC50 [2]: 25.7 µM | IC50 [3]: 1.47e-05 M | IC50 [4]: 2.87e-05 M | IC50 ([5]; 72 h): 1.68e-05 M | IC50 [6]: 0.0917 µM | IC50 ([7]; read-out: Cytotox SUDHL5 [M] (median), SUDHL5 cells, cytotoxicity induction, CellTiter-Glo, 5 h, median): 1.85e-05 M | IC50 ([8]; read-out: Cytotox SUDHL10 [M] (median), SUDHL10 cells, cytotoxicity induction, CellTiter-Glo, 5 h, median): 2.67e-05 M | IC50 ([9]; 72 h): 1.54e-05 M

Cn1nc(COc2cncnc2)c2c1COCCCCn1c(C(=O)O)c(CCCOc3cccc4ccccc34)c3cccc-2c31 (single isomer, unassigned) [Example 212, 1-methyl-7-[3-(naphthalen-1-yloxy)propyl]-3-[(pyrimidin-5-yloxy)methyl]-1,10,11,12,13,15-hexahydropyrazolo[4′,3′:9,10][1,6]oxazacycloundecino[8,7,6-hi]indole-8-carboxylic Acid]
EC50 [1]: 7.34 µM | EC50 [2]: 19.9 µM | IC50 [3]: 5e-06 M | IC50 [4]: 2.15e-05 M and > 3.3e-05 M | IC50 ([5]; 72 h incubation): 5.11e-06 M | IC50 [6]: 0.00637 µM | IC50 [7, 10]: 6.68e-06 M | IC50 [8, 11]: 2.02e-05 M | IC50 ([9]; 72 h incubation): 3.63e-06 M

CCc1c2c(nn1CCN1CCOCC1)COCCCCn1c(C(=O)O)c(CCCOc3cccc4ccccc34)c3cccc-2c31 (single isomer, unassigned; enantiomer 2) [Example 203, 3-ethyl-2-[2-(morpholin-4-yl)ethyl]-7-[3-(naphthalen-1-yloxy)propyl]-2,10,11,12,13,15-hexahydropyrazolo[4′,3′:9,10][1,6]oxazacycloundecino[8,7,6-hi]indole-8-carboxylic Acid (Enantiomer 2)]
EC50 [1]: 1.61 µM | EC50 [2]: 7.45 µM | IC50 [3]: 2.8e-06 M | IC50 [4]: 2.21e-05 M | IC50 ([5]; 72 h incubation): 2.19e-06 M | IC50 [6]: 0.0021 µM | IC50 [7, 10]: 1.32e-06 M | IC50 [8, 11]: 4.31e-06 M | IC50 ([9]; 72 h incubation): 1.78e-06 M

CCc1nn(C)c2c1-c1cccc3c(CCCOc4cccc5cc(F)ccc45)c(C(=O)O)n(c13)CCCCOC2 (racemic) [Example 287, (rac)-3-ethyl-7-{3-[(6-fluoronaphthalen-1-yl)oxy]propyl}-1-methyl-1,10,11,12,13,15-hexahydropyrazolo[4′,3′:9,10][1,6]oxazacycloundecino[8,7,6-hi]indole-8-carboxylic Acid]
EC50 ([1]; Homo sapiens, SU-DHL-5, 3 h): 5.14 µM | EC50 ([2]; Homo sapiens, SU-DHL10, 3 h): 13 µM | IC50 [3]: 1.49e-05 M | IC50 ([4]; Homo sapiens, A2780, 72 h): 3.05e-05 M | IC50 ([5]; Homo sapiens, SU-DHL-5, 72 h, 72 h): 7.2e-06 M | IC50 [6]: 0.00206 µM | IC50 ([7]; Homo sapiens, SU-DHL-5, 5 h, read-out: Cytotox SUDHL5 [M] (median), SUDHL5 cells, cytotoxicity induction, CellTiter-Glo, 5 h, median): 5.19e-06 M | IC50 ([8]; Homo sapiens, SU-DHL10, 5 h, read-out: Cytotox SUDHL10 [M] (median), SUDHL10 cells, cytotoxicity induction, CellTiter-Glo, 5 h, median): 1.58e-05 M | IC50 ([9]; Homo sapiens, SU-DHL10, 72 h, 72 h): 8.1e-06 M

Cc1nn(C)c2c1-c1cccc3c(CCCOc4cccc5ccccc45)c(C(=O)O)n(c13)CCCOC2 (single isomer, unassigned; enantiomer 1) [Example 044, 9,11-dimethyl-1-[3-(naphthalen-1-yloxy)propyl]-5,6,8,9-tetrahydro-4H-pyrazolo[4′,3′:8,9][1,5]oxazecino[7,6,5-h]indole-2-carboxylic acid-N-ethylethanamine Salt (Enantiomer 1)]
EC50 [1]: 6.63 µM | EC50 ([2]; Homo sapiens, SU-DHL10, 3 h): 25.3 µM | IC50 [3]: 4.1e-06 M | IC50 ([4]; Homo sapiens, A2780, 72 h): > 3.3e-05 M | IC50 [5, 12]: 7.61e-06 M | IC50 [6]: 0.00357 µM | IC50 [7, 10]: 6.01e-06 M | IC50 [8, 13]: 2.34e-05 M | IC50 [9, 14]: 1.1e-05 M
